Measured values published in patent publication US5602100A, “Dermorphin analogs having pharmacological activity” (priority 1988, dated 1997).
Non-standard residues stand in square brackets, D forms with d. Residues, ends and D or L forms follow the SMILES beside them. dDab = NCC[C@@H](N)C(=O)O; Orn = NCCC[C@H](N)C(=O)O; Dab = NCC[C@H](N)C(=O)O

Columns and labels:
δ-opioid receptor = molecular target: T1, δ-opioid receptor (Rattus norvegicus, UniProt P33533); assay: biochemical; format: binding
T1 construct: displacement of the radioligands from the rat brain membrane preparations; from tissue; host or cells: rat brain membrane preparations
T1 sequence (P33533 whole entry): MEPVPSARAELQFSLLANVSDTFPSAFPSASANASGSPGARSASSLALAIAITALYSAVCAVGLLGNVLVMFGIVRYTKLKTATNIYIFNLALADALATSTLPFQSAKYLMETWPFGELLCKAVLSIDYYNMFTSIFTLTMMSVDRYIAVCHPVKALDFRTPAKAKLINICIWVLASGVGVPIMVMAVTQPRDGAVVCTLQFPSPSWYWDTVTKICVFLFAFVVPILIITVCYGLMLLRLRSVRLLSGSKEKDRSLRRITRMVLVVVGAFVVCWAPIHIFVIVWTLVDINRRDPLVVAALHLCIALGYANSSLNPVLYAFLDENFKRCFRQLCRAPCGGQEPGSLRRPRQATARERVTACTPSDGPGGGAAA

μ-opioid receptor = molecular target: T2, μ-opioid receptor (Rattus norvegicus, UniProt P33535); assay: biochemical; format: binding
T2 construct: displacement of the radioligands from the rat brain membrane preparations; from tissue; host or cells: rat brain membrane preparations
T2 sequence (P33535 whole entry): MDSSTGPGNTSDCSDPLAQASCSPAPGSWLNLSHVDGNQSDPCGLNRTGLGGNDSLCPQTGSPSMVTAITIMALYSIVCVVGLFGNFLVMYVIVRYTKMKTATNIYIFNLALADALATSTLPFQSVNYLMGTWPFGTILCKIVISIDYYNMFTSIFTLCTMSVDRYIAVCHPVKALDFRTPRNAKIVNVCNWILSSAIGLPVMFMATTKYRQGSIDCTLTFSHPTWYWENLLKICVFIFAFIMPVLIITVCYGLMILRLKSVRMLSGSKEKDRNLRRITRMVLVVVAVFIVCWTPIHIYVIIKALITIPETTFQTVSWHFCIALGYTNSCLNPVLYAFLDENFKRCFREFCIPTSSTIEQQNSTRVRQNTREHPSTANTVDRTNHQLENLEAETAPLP

hot plate stimulus = assay: Mouse hot plate test; format: in vivo
Description: The mouse hot plate test is an assay which only detects centrally-mediated analgesic effects. This test was carried out using the protocol described in G. Woolfe and A. MacDonald, J. Pharmacol. Exp. Ther., 80, p. 300 ([…]).
Since most of the peptides of the invention were not potent centrally, it was impossible to determine an ED50 value. […] A result is considered insignificant if 30% of mice or lower have responded.

PBQ-induced writhing = assay: Mouse writhing test (PBQ); format: in vivo; details: dose reducing the number of writhes by 50%
Description: The mouse writhing test detects both peripherally and centrally mediated analgesic effects. The test procedure is described in Siegmund et al., Proc. Soc. Exp. Biol. Med., 95, p. 729 (1957). In this test, a control group of albino mice was injected intraperitoneally with 0.3 ml/20 g body weight of a 0.02% solution of 2-phenyl-1,4-benzoquinone (PBQ). The writhing and contortional movements of the mice over the following 15 minutes were recorded. A second group of mice was given a dose of a synthetic dermorphin analog according to this invention, then allowed to wait a period of time before being administered the PBQ injection. The average number of writhes was then recorded and compared to the control group. The results of this test are expressed as the dosage of peptide that reduces the number of writhes by 50% at a given time interval (referred to as ED50).

## N=C(N)NCCC[C@H](NC(=O)[C@H](Cc1ccccc1)NC(=O)[C@@H](CCCNC(=N)N)NC(=O)[C@@H](N)Cc1ccc(O)cc1)C(N)=O [BCH-1766, H-Tyr-D-Arg-Phe-Arg-NH2] (H-Y[dR]FR-NH2)
δ-opioid receptor
  Ki: 12000 nM
μ-opioid receptor
  Ki: 98.8 nM
  Ki^δ /Ki^μ: 121

## CC[C@@H](C)[C@@H](NC(=O)[C@@H](N)Cc1ccc(O)cc1)C(=O)N[C@@H](Cc1ccccc1)C(=O)N[C@@H](CCCCN)C(N)=O [BCH-2203, H-Tyr-D-Ile-Phe-Lys-NH2] (H-Y[dI]FK-NH2)
δ-opioid receptor
  Ki: > 2530 nM
μ-opioid receptor
  Ki: 7.49 nM
  Ki^δ /Ki^μ: > 338
Hot plate stimulus; dose 40 mg/kg, time 120 min.
  % of animals showing a 50% increase: 80%
PBQ-induced writhing
  PBQ (20 min.) ED50: 0.8 mg/kg

## CC(C)C[C@@H](NC(=O)[C@@H](N)Cc1ccc(O)cc1)C(=O)N[C@@H](Cc1ccccc1)C(=O)N[C@@H](CCCCN)C(N)=O [BCH-2207, H-Tyr-D-Leu-Phe-Lys-NH2] (H-Y[dL]FK-NH2)
δ-opioid receptor
  Ki: > 2530 nM
μ-opioid receptor
  Ki: 168 nM
  Ki^δ /Ki^μ: > 15
Hot plate stimulus; dose 40 mg/kg, time 30 min.
  % of animals showing a 50% increase: 20%
Hot plate stimulus; dose 100 mg/kg, time 50 min.
  % of animals showing a 50% increase: 0%

## NCCCC[C@H](NC(=O)[C@H](Cc1ccccc1)NC(=O)[C@@H](CO)NC(=O)[C@@H](N)Cc1ccc(O)cc1)C(N)=O [BCH-2209, H-Tyr-D-Ser-Phe-Lys-NH2] (H-Y[dS]FK-NH2)
δ-opioid receptor
  Ki: > 2530 nM
μ-opioid receptor
  Ki: 24.1 nM
  Ki^δ /Ki^μ: > 105
Hot plate stimulus; dose 40 mg/kg, time 30 min.
  % of animals showing a 50% increase: 40%
Hot plate stimulus; dose 100 mg/kg, time 30 min.
  % of animals showing a 50% increase: 40%
PBQ-induced writhing
  PBQ (20 min.) ED50: 2.8 mg/kg

## C[C@@H](NC(=O)[C@@H](N)Cc1ccc(O)cc1)C(=O)N[C@@H](Cc1ccccc1)C(=O)N[C@@H](CCCN)C(N)=O [BCH-2219, H-Tyr-D-Ala-Phe-Orn-NH2] (H-Y[dA]F[Orn]-NH2)
δ-opioid receptor
  Ki: 9880 nM
μ-opioid receptor
  Ki: 10.7 nM
  Ki^δ /Ki^μ: 924.51
Hot plate stimulus; dose 40 mg/kg, time 30 min.
  % of animals showing a 50% increase: 60%
PBQ-induced writhing
  PBQ (20 min.) ED50: ~ 1 mg/Kg

## CC[C@@H](C)[C@@H](NC(=O)[C@@H](N)Cc1ccc(O)cc1)C(=O)N[C@@H](Cc1ccccc1)C(=O)N[C@@H](CCCN)C(N)=O [BCH-2456, H-Tyr-D-Ile-Phe-Orn-NH2] (H-Y[dI]F[Orn]-NH2)
δ-opioid receptor
  Ki: 4280 nM
μ-opioid receptor
  Ki: 4.49 nM
  Ki^δ /Ki^μ: 952.35
Hot plate stimulus; dose 40 mg/kg, time 60 min.
  % of animals showing a 50% increase: 40%
Hot plate stimulus; dose 100 mg/kg, time 60 min.
  % of animals showing a 50% increase: 50%
PBQ-induced writhing
  PBQ (20 min.) ED50: 0.6 mg/kg

## NCCC[C@H](NC(=O)[C@H](Cc1ccccc1)NC(=O)[C@@H](Cc1ccccc1)NC(=O)[C@@H](N)Cc1ccc(O)cc1)C(N)=O [BCH-2457, H-Tyr-D-Phe-Phe-Orn-NH2] (H-Y[dF]F[Orn]-NH2)
δ-opioid receptor
  Ki: 2460 nM
μ-opioid receptor
  Ki: 7.39 nM
  Ki^δ /Ki^μ: 333.37
Hot plate stimulus; dose 40 mg/kg, time 60 min.
  % of animals showing a 50% increase: 40%
PBQ-induced writhing
  PBQ (20 min.) ED50: 1.8 mg/kg

## CC(C)[C@@H](NC(=O)[C@@H](N)Cc1ccc(O)cc1)C(=O)N[C@@H](Cc1ccccc1)C(=O)N[C@@H](CCCN)C(N)=O [BCH-2458, H-Tyr-D-Val-Phe-Orn-NH2] (H-Y[dV]F[Orn]-NH2)
δ-opioid receptor
  Ki: 8780 nM
μ-opioid receptor
  Ki: 13.3 nM
  Ki^δ /Ki^μ: 658.27
Hot plate stimulus; dose 40 mg/kg, time 30 min.
  % of animals showing a 50% increase: 30%
Hot plate stimulus; dose 100 mg/kg, time 60 min.
  % of animals showing a 50% increase: 55%
PBQ-induced writhing
  PBQ (20 min.) ED50: 1.0 mg/kg

## CC(C)C[C@@H](NC(=O)[C@@H](N)Cc1ccc(O)cc1)C(=O)N[C@@H](Cc1ccccc1)C(=O)N[C@@H](CCCN)C(N)=O [BCH-2459, H-Tyr-D-Leu-Phe-Orn-NH2] (H-Y[dL]F[Orn]-NH2)
δ-opioid receptor
  Ki: 18600 nM
μ-opioid receptor
  Ki: 77.5 nM
  Ki^δ /Ki^μ: 240.10

## NCCCC[C@H](NC(=O)[C@H](Cc1ccccc1)NC(=O)[C@@H](Cc1ccccc1)NC(=O)[C@@H](N)Cc1ccc(O)cc1)C(N)=O [BCH-2460, H-Tyr-D-Phe-Phe-Lys-NH2] (H-Y[dF]FK-NH2)
δ-opioid receptor
  Ki: 1900 nM
μ-opioid receptor
  Ki: 19 nM
  Ki^δ /Ki^μ: 99.47
PBQ-induced writhing
  PBQ (20 min.) ED50: ~ 3 mg/Kg

## NCCC[C@H](NC(=O)[C@H](Cc1ccccc1)NC(=O)[C@@H](CO)NC(=O)[C@@H](N)Cc1ccc(O)cc1)C(N)=O [BCH-2461, H-Tyr-D-Ser-Phe-Orn-NH2] (H-Y[dS]F[Orn]-NH2)
δ-opioid receptor
  Ki: 15900 nM
μ-opioid receptor
  Ki: 13.2 nM
  Ki^δ /Ki^μ: 1210.57
Hot plate stimulus; dose 40 mg/kg, time 30 min.
  % of animals showing a 50% increase: 50%
PBQ-induced writhing
  PBQ (20 min.) ED50: 0.7 mg/kg

## NCC[C@H](NC(=O)[C@H](Cc1ccccc1)NC(=O)[C@@H](Cc1ccccc1)NC(=O)[C@@H](N)Cc1ccc(O)cc1)C(N)=O [BCH-2466, H-Tyr-D-Phe-Phe-A2 bu-NH2] (H-Y[dF]F[Dab]-NH2)
δ-opioid receptor
  Ki: 1420 nM
μ-opioid receptor
  Ki: 2.81 nM
  Ki^δ /Ki^μ: 507.59
Hot plate stimulus; dose 40 mg/kg, time 60 min.
  % of animals showing a 50% increase: 80%
PBQ-induced writhing
  PBQ (20 min.) ED50: 0.2 mg/kg

## CC(C)[C@@H](NC(=O)[C@@H](N)Cc1ccc(O)cc1)C(=O)N[C@@H](Cc1ccccc1)C(=O)N[C@@H](CCN)C(N)=O [BCH-2467, H-Tyr-D-Val-Phe-A2 bu-NH2] (H-Y[dV]F[Dab]-NH2)
δ-opioid receptor
  Ki: 6280 nM
μ-opioid receptor
  Ki: 2.64 nM
  Ki^δ /Ki^μ: 1113.55
Hot plate stimulus; dose 40 mg/kg, time 60 min.
  % of animals showing a 50% increase: 90%
PBQ-induced writhing
  PBQ (20 min.) ED50: 2 mg/kg

## CC[C@@H](C)[C@@H](NC(=O)[C@@H](N)Cc1ccc(O)cc1)C(=O)N[C@@H](Cc1ccccc1)C(=O)N[C@@H](CCN)C(N)=O [BCH-2468, H-Tyr-D-Ile-Phe-A2 bu-NH2] (H-Y[dI]F[Dab]-NH2)
δ-opioid receptor
  Ki: 2530 nM
μ-opioid receptor
  Ki: 9.7 nM
  Ki^δ /Ki^μ: 260.61
PBQ-induced writhing
  PBQ (20 min.) ED50: 3 to 10 mg/kg

## NCC[C@H](NC(=O)[C@H](Cc1ccccc1)NC(=O)[C@@H](CO)NC(=O)[C@@H](N)Cc1ccc(O)cc1)C(N)=O [BCH-2469, H-Tyr-D-Ser-Phe-A2 bu-NH2] (H-Y[dS]F[Dab]-NH2)
δ-opioid receptor
  Ki: 5480 nM
μ-opioid receptor
  Ki: 5.11 nM
  Ki^δ /Ki^μ: 1071.20
Hot plate stimulus; dose 40 mg/kg, time 60 min.
  % of animals showing a 50% increase: 90%
PBQ-induced writhing
  PBQ (20 min.) ED50: 1.5 mg/kg

## C[C@@H](NC(=O)[C@@H](N)Cc1ccc(O)cc1)C(=O)N[C@@H](Cc1ccccc1)C(=O)N[C@@H](CCN)C(N)=O [BCH-2470, H-Tyr-D-Ala-Phe-A2 bu-NH2] (H-Y[dA]F[Dab]-NH2)
δ-opioid receptor
  Ki: 3730 nM
μ-opioid receptor
  Ki: 5.91 nM
  Ki^δ /Ki^μ: 630.58
Hot plate stimulus; dose 40 mg/kg, time 120 min.
  % of animals showing a 50% increase: 90%
PBQ-induced writhing
  PBQ (20 min.) ED50: 0.3 mg/kg

## CC(C)C[C@@H](NC(=O)[C@@H](N)Cc1ccc(O)cc1)C(=O)N[C@@H](Cc1ccccc1)C(=O)N[C@@H](CCN)C(N)=O [BCH-2474, H-Tyr-D-Leu-Phe-A2 bu-NH2] (H-Y[dL]F[Dab]-NH2)
δ-opioid receptor
  Ki: 13100 nM
μ-opioid receptor
  Ki: 69.8 nM
  Ki^δ /Ki^μ: 186.98
PBQ-induced writhing
  PBQ (20 min.) ED50: > 10 mg/kg

## NCCC[C@H](NC(=O)[C@H](Cc1ccccc1)NC(=O)[C@@H](CCN)NC(=O)[C@@H](N)Cc1ccc(O)cc1)C(N)=O [BCH-2580, H-Tyr-D-A2 bu-Phe-Orn-NH2] (H-Y[dDab]F[Orn]-NH2)
μ-opioid receptor
  Ki^δ /Ki^μ: 411.98
Hot plate stimulus; dose 40 mg/kg, time 60 min.
  % of animals showing a 50% increase: 80%
PBQ-induced writhing
  PBQ (20 min.) ED50: 1.2 mg/kg

## N=C(N)NCCC[C@@H](NC(=O)[C@@H](N)Cc1ccc(O)cc1)C(=O)N[C@@H](Cc1ccccc1)C(=O)N[C@@H](Cc1ccccc1)C(N)=O [BCH-2687, H-Tyr-D-Arg-Phe-Phe-NH2] (H-Y[dR]FF-NH2)
Hot plate stimulus; dose 40 mg/kg, time 60 min.
  % of animals showing a 50% increase: 70%

## N=C(N)NCCC[C@@H](NC(=O)[C@@H](N)Cc1ccc(O)cc1)C(=O)N[C@@H](Cc1ccccc1)C(=O)N[C@@H](CO)C(N)=O [BCH-2688, H-Tyr-D-Arg-Phe-Ser-NH2] (H-Y[dR]FS-NH2)
Hot plate stimulus; dose 40 mg/kg, time 60 min.
  % of animals showing a 50% increase: 100%

## CC(C)C[C@H](NC(=O)[C@H](Cc1ccccc1)NC(=O)CNC(=O)[C@@H](CO)NC(=O)[C@@H](N)Cc1ccc(O)cc1)C(=O)N[C@H](C(=O)O)[C@@H](C)O [[^3 H]DSLET, reference compound]
δ-opioid receptor; read-out: Dissociation constant of radioligand
  Kd: 2.6 nM
